≈ marks a conversion by molar mass, not a printed value.
How the values were obtained:
Assay type in all cases: cell-based
[1] = tested on: S. pyogenes ATCC 19615; test: MIC (broth microdilution or agar dilution, CLSI); details: Streptococcus pyogenes, ATCC19615, S. pyogenes HAV#004, ATCC 19615; read-out: MIC
In short: (§1)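 Inoculum for broth microdilution was 5×10^5 CFU/mL final, prepared from overnight 35° C blood-agar subcultures (separate handling for streptococcal and anaerobic strains); MICs read by CLSI broth microdilution or agar dilution.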

[2] = tested on: S. aureus ATCC BAA-1707 (MRSA); test: MIC (broth microdilution or agar dilution, CLSI); details: Staphylococcus aureus; S. aureus HAV#016, ATCC BAA-1707; MRSA; read-out: MIC
In short: as §1

[3] = tested on: S. aureus ATCC 700699; test: MIC (broth microdilution or agar dilution, CLSI); details: Staphylococcus aureus, ATCC 700699 / VISA
In short: as §1

[4] = tested on: S. pyogenes MMX 946; cErmB; test: MIC (broth microdilution or agar dilution, CLSI); details: Streptococcus pyogenes; S. pyogenes HAV#035, MMX 946; cErmB, mac-resistant; read-out: MIC
In short: as §1

[5] = tested on: E. coli LptD; test: MIC (broth microdilution or agar dilution, CLSI); details: Escherichia coli, E. coli HAV#040; LptD; read-out: MIC
In short: as §1

[6] = tested on: S. pneumoniae ATCC 6303; test: MIC (broth microdilution or agar dilution, CLSI); details: Streptococcus pneumoniae, ATCC6303; S. pneumoniae HAV#351, ATCC 6303; read-out: MIC
In short: as §1

[7] = tested on: S. aureus ATCC 29213; test: MIC (broth microdilution or agar dilution, CLSI); details: Staphylococcus aureus, ATCC29213, S. aureus HAV#001, ATCC 29213, MP-549; read-out: MIC
In short: as §1

[8] = tested on: S. pneumoniae ATCC 49619; test: MIC (broth microdilution or agar dilution, CLSI); details: Streptococcus pneumoniae, ATCC49619, S. pneumoniae HAV#003, ATCC 49619; read-out: MIC
In short: as §1

[9] = tested on: E. coli ATCC 25922; test: MIC (broth microdilution or agar dilution, CLSI); details: Escherichia coli, ATCC25922; E. coli HAV#006, ATCC 25922; read-out: MIC
In short: as §1

[10] = tested on: E. coli ΔTolC; test: microbe, parasite or virus in culture; details: Escherichia coli, E. coli HAV#038; ΔTolC
In short: as §1

[11] = tested on: E. coli armA; test: microbe, parasite or virus in culture; details: Escherichia coli, E. coli HAV#056; Clinical, armA
In short: as §1

[12] = tested on: S. aureus BAA 977 iErmA; test: microbe, parasite or virus in culture; details: Staphylococcus aureus, BAA-977 / MRSA
In short: as §1

[13] = tested on: S. aureus MP-549 msrA; test: microbe, parasite or virus in culture; details: Staphylococcus aureus, MP549MSRA; S. aureus HAV#032, MP-549; MSR(A)
In short: as §1

[14] = tested on: broad panel of different clinical isolates; test: microbe, parasite or virus in culture
In short: as §1

## CO/N=C(\C(=O)N[C@@H]1C(=O)N2C(C(=O)O)=C(CSc3nc(=O)c(=O)[nH]n3C)CS[C@H]12)c1csc(N)n1 [Ceftriaxone]
[1]
  MIC: 0.06 µg/mL (≈ 0.108 µM)
[2]
  MIC: 64 µg/mL (≈ 115 µM)
[3]
  MIC: > 128 µg/mL
[4]
  MIC: ≤ 0.03 µg/mL
[5]
  MIC: ≤ 0.06 µg/mL
[6]
  MIC: 0.06 µg/mL (≈ 0.108 µM)
[7]
  MIC: 2 µg/mL (≈ 3.61 µM)
[8]
  MIC: 0.06 µg/mL (≈ 0.108 µM)
[9]
  MIC: 0.125 µg/mL (≈ 0.225 µM)
[10]
  MIC: ≤ 0.06 µg/mL
[11]
  MIC: ≤ 0.06 µg/mL
[12]
  MIC: 2 µg/mL (≈ 3.61 µM)
[13]
  MIC: > 128 µg/mL
[14]; Acinetobacter baumannii, A. baumannii HAV#651, Clinical
  MIC: 4 µg/mL (≈ 7.21 µM)
[14]; Acinetobacter baumannii, A. baumannii HAV#652 Clinical
  MIC: 16 µg/mL (≈ 28.9 µM)
[14]; Acinetobacter baumannii, A. baumannii HAV#653, Clinical
  MIC: 2 µg/mL (≈ 3.61 µM)
[14]; Acinetobacter baumannii, A. baumannii HAV#654, Clinical
  MIC: 4 µg/mL (≈ 7.21 µM)
[14]; Acinetobacter baumannii, A. baumannii HAV#655, Clinical
  MIC: 64 µg/mL (≈ 115 µM)
[14]; Acinetobacter baumannii, A. baumannii HAV#656, Clinical
  MIC: 64 µg/mL (≈ 115 µM)
[14]; Acinetobacter baumannii, A. baumannii HAV#657, Clinical
  MIC: 64 µg/mL (≈ 115 µM)
[14]; Acinetobacter baumannii, A. baumannii HAV#658, Clinical
  MIC: 16 µg/mL (≈ 28.9 µM)
[14]; Acinetobacter baumannii, A. baumannii HAV#659, Clinical
  MIC: 32 µg/mL (≈ 57.7 µM)
[14]; Acinetobacter baumannii, A. baumannii HAV#660, Clinical
  MIC: 32 µg/mL (≈ 57.7 µM)
[14]; Acinetobacter baumannii, A. baumannii HAV#661, Clinical
  MIC: 2 µg/mL (≈ 3.61 µM)
[14]; Acinetobacter baumannii, A. baumannii HAV#662, Clinical
  MIC: 32 µg/mL (≈ 57.7 µM)
[14]; Acinetobacter baumannii, A. baumannii HAV#663, Clinical
  MIC: 16 µg/mL (≈ 28.9 µM)
[14]; Acinetobacter baumannii, A. baumannii HAV#664, Carbapenem R
  MIC: 64 µg/mL (≈ 115 µM)
[14]; Enterococcus faecalis, E. faecalis HAV#607, Clinical
  MIC: > 256 µg/mL
[14]; Enterococcus faecalis, E. faecalis HAV#608, Clinical
  MIC: > 256 µg/mL
[14]; Enterococcus faecalis, E. faecalis HAV#609, Clinical
  MIC: > 256 µg/mL
[14]; Enterococcus faecalis, E. faecalis HAV#610, Clinical
  MIC: > 256 µg/mL
[14]; Enterococcus faecalis, S. faecalis 5060, Line R & Vanco R
  MIC: > 256 µg/mL
[14]; Enterococcus faecalis, S. faecalis 5074, Line R
  MIC: 256 µg/mL (≈ 462 µM)
[14]; Enterococcus faecalis, VRE, E. faecalis HAV#606, Clinical
  MIC: > 256 µg/mL
[14]; Enterococcus faecium, E. faecium HAV#327, Clinical
  MIC: 0.5 µg/mL (≈ 0.902 µM)
[14]; Enterococcus faecium, E. faecium HAV#328, Clinical
  MIC: > 128 µg/mL
[14]; Enterococcus faecium, E. faecium HAV#329, Clinical
  MIC: > 256 µg/mL
[14]; Escherichia coli, E. coli HAV#503, Clinical
  MIC: > 128 µg/mL
[14]; Escherichia coli, E. coli HAV#511, Clinical
  MIC: 16 µg/mL (≈ 28.9 µM)
[14]; Escherichia coli, E. coli HAV#512, Clinical
  MIC: < 0.06 µg/mL
[14]; Escherichia coli, E. coli HAV#513, Clinical
  MIC: 0.125 µg/mL (≈ 0.225 µM)
[14]; Escherichia coli, E. coli HAV#514, Clinical
  MIC: 0.125 µg/mL (≈ 0.225 µM)
[14]; Escherichia coli, E. coli HAV#516, ESBL-producing
  MIC: 64 µg/mL (≈ 115 µM)
[14]; Klebsiella pneumoniae, K. pneumoniae HAV#404, Clinical
  MIC: 64 µg/mL (≈ 115 µM)
[14]; Klebsiella pneumoniae, K. pneumoniae HAV#405, Clinical
  MIC: 64 µg/mL (≈ 115 µM)
[14]; Klebsiella pneumoniae, K. pneumoniae HAV#406, Clinical
  MIC: < 0.06 µg/mL
[14]; Klebsiella pneumoniae, K. pneumoniae HAV#407, Clinical
  MIC: 1 µg/mL (≈ 1.8 µM)
[14]; Klebsiella pneumoniae, K. pneumoniae HAV#408, Clinical
  MIC: 2 µg/mL (≈ 3.61 µM)
[14]; Klebsiella pneumoniae, K. pneumoniae HAV#409, ESBL-producing
  MIC: 128 µg/mL (≈ 231 µM)
[14]; Neisseria gonorrhoeae, N. gonorrhoeae HAV#701, Clinical
  MIC: 0.125 µg/mL (≈ 0.225 µM)
[14]; Neisseria gonorrhoeae, N. gonorrhoeae HAV#702, Clinical
  MIC: 0.25 µg/mL (≈ 0.451 µM)
[14]; Staphylococcus aureus, MRSA, S. aureus HAV#017, MRSA Col(Colindale, England)
  MIC: > 128 µg/mL
[14]; Staphylococcus aureus, MRSA, S. aureus HAV#218, Line R
  MIC: 32 µg/mL (≈ 57.7 µM)
[14]; Staphylococcus aureus, MRSA, S. aureus HAV#220, Line R
  MIC: > 128 µg/mL
[14]; Staphylococcus aureus, MSSA, S. aureus HAV#219, Line R
  MIC: 2 µg/mL (≈ 3.61 µM)
[14]; Staphylococcus aureus, S. aureus HAV#052, mecA, norA, fosB, blaZ
  MIC: 64 µg/mL (≈ 115 µM)
[14]; Staphylococcus aureus, S. aureus HAV#053 mecA, norA, fosB
  MIC: 128 µg/mL (≈ 231 µM)
[14]; Staphylococcus aureus, S. aureus HAV#054, mecA, norA, spcl, aad1, fosB, ermA, aac6′-aph2″, blaZ
  MIC: > 256 µg/mL
[14]; Staphylococcus aureus, S. aureus HAV#211, Clinical
  MIC: > 64 µg/mL
[14]; Staphylococcus aureus, S. aureus HAV#212, Clinical
  MIC: 32 µg/mL (≈ 57.7 µM)
[14]; Staphylococcus aureus, S. aureus HAV#213, Clinical
  MIC: 1 µg/mL (≈ 1.8 µM)
[14]; Staphylococcus aureus, S. aureus HAV#214, Clinical
  MIC: 4 µg/mL (≈ 7.21 µM)
[14]; Staphylococcus aureus, S. aureus HAV#215, Clinical
  MIC: 1 µg/mL (≈ 1.8 µM)
[14]; Staphylococcus aureus, S. aureus HAV#216, Clinical, cfr
  MIC: 128 µg/mL (≈ 231 µM)
[14]; Staphylococcus aureus, S. aureus HAV#217, cfr
  MIC: 64 µg/mL (≈ 115 µM)
[14]; Staphylococcus epidermidis, S. epidermidis HAV# 275 Clinical, cfr
  MIC: > 128 µg/mL
[14]; Staphylococcus epidermidis, S. epidermidis HAV# 276, cfr
  MIC: > 128 µg/mL
[14]; Staphylococcus epidermidis, S. epidermidis HAV#277, Line R
  MIC: > 128 µg/mL
[14]; Staphylococcus epidermidis, S. epidermidis HAV#278 Line R
  MIC: > 128 µg/mL
[14]; Staphylococcus epidermidis, S. epidermidis HAV#279, Line R
  MIC: 4 µg/mL (≈ 7.21 µM)
[14]; Staphylococcus haemolyticus, S. haemolyticus 5052, Line R & Methicillin R
  MIC: > 256 µg/mL
[14]; Streptococcus pneumoniae, ATCC700673, S. pneumoniae HAV#352, ATCC 700673, MDR
  MIC: 1 µg/mL (≈ 1.8 µM)
[14]; Streptococcus pneumoniae, ATCCBAA255, S. pneumoniae HAV#354, ATCC-BAA-255
  MIC: 1 µg/mL (≈ 1.8 µM)
[14]; Streptococcus pneumoniae, ATCCBAA334, S. pneumoniae HAV#353, ATCC-BAA-334
  MIC: 1 µg/mL (≈ 1.8 µM)
[14]; Streptococcus pneumoniae, S. pneumoniae HAV#356, Clinical
  MIC: 1 µg/mL (≈ 1.8 µM)
[14]; Streptococcus pneumoniae, S. pneumoniae HAV#358, Clinical
  MIC: 1 µg/mL (≈ 1.8 µM)

Reference: patent publication US20230203081A1, “LINCOSAMIDE ANTIBIOTICS AND USES THEREOF” (President and Fellows of Harvard College, priority 2020, published 2023)
